From patent US9249147B2, “Tyrosine kinase inhibitors” (CHEMBRIDGE CORPORATION, priority 2008, dated 2016) come the findings set out here.

Structures are written as SMILES. Entries after “also recorded” stand apart in the source; their conditions may differ. A value given as a limit tells only on which side of the number the result lay.

In one series the test system is U937. Description: Cellular IC50, U937. The series is classed as cell-based. Particulars: Homo sapiens, U-937; Table 3A.
Series [1] can be described thus: Liver microsome stability, Mouse LM-P1 / MLM. The series is classed as in vitro ADME. Particulars: Table 3A, mouse liver microsomes; read-out: CL MLM.
The test system of the next series is SUDHL-1. Description: Cellular IC50, SUDHL-1. The series is classed as cell-based. Particulars: Homo sapiens, SU-DHL-1; Table 3A. From the text: (§1) Cell proliferation inhibition assays were run for compound (II) with the five target NPM-ALK-dependent ALCL cell lines (Karpas 299, SuDHL-1, JB6, SupM2, UConn) and 12 unrelated cell lines (HEK293, CHO-K1, MCF7, HepG2, H292, H520, H1581, H596, H522, CHA-GO-K1, UMC-11, SK-MES1). […] The pronounced target cell-killing effect is also observed (molecular mechanisms to be determined).

Series [2] in a line: Liver microsome stability, Human LM-P1 / HLM. The series is classed as in vitro ADME. Conditions: Table 3A, human liver microsomes; read-out: CL HLM. From the text: Metabolic stability of compound (II) (labeled as CRL241 below) in vitro has been tested in a standard in vitro microsomal stability assay in human microsomes (Cerep Study 13170).
The target in another series is RET (Homo sapiens, UniProt P07949). The experiment in a line: RET cell free kinase assay (Table 3A). The series is classed as biochemical.
In a further series the target is TRKA (Homo sapiens, UniProt P04629). Description: TRKA kinase assay. The series is classed as biochemical. Also noted: 6×His- or GST-tagged kinase domain fragments of the corresponding RTKs expressed in baculovirus system; host or cells: baculovirus system. Particulars: Table 3A; read-out: Cell Free IC50 TRKA.
The target of a further series is ROS (Homo sapiens, UniProt P08922). Description: ROS cell free kinase assay (Table 3A). The series is classed as biochemical.
In a further series the target is ALK (Homo sapiens, UniProt Q9UM73). The experiment in a line: ALK kinase assay (Kinase-Glo / AlphaScreen, purified NPM-ALK).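 Also: recombinant baculovirus-expressed ALK kinase domain, activity read either as leftover ATP by Kinase-Glo luminescence or as poly(Glu-Tyr) phosphorylation by anti-phosphotyrosine AlphaScreen proximity signal.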 The series is classed as biochemical. Set-up: fused to the complete intracytoplasmic portion of ALK containing the functional tyrosine kinase domain; 6xHis; made in house; host or cells: insect cells; the other entry of the earlier key: NPM1 (P06748, Nucleophosmin). Conditions: Table 3A; read-out: Cell Free IC50 ALK. For orientation: Kinase-Glo reads ATP consumption through a luciferase reaction.

A further series concerns Karpas299. Description: Cell proliferation inhibition, ALCL line Karpas299. The series is classed as cell-based. Conditions: Homo sapiens, KARPAS-299; Table 3A; read-out: Cellular IC50 K-299.
Source text: The IL-3-dependent lymphoid cell line BaF3 or BaF3 rendered IL-3-independent by engineered expression of NPM-ALK were used in parallel to test each candidate inhibitor. Control wells contained DMSO solvent without test compound. Specific inhibition of ALK signaling is indicated in the assay by impairment of NPM-ALK-expressing BaF3 cell growth without alterations in the growth of parental BaF3. This colorimetric assay of cell proliferation and viability is based upon reduction of the yellow monotetrazolium salt XTT to a water-soluble orange formazan dye, a reaction catalyzed by mitochondrial dehydrogenases in living cells only (Cell Proliferation Kit II, Cat. #1 465 015, Roche Biochemicals). In addition to testing compounds for their ability to impair the growth of BaF3 cells engineered to express NPM-ALK, the NPM-ALK-positive human lymphoma cell line Karpas-299 (Deutsche Sammlung von Mikroorganismen and Zellkulturen GmbH (DSMZ) no. ACC 31), the human BCR-ABL-positive chronic myeloid leukemia cell line K562 (American Type Culture Collection (ATCC) no. CCL-243), and the human T-cell leukemia line Jurkat (DSMZ no. ACC 282) were tested in these assays.
Each compound stock in 100% DMSO was first diluted using 8% DMSO/culture medium to produce a working stock of 250 μM compound. This working stock was then used to perform serial 1:1 dilutions (i.e., 125 μM, 62.5 μM, 31.25 μM, 15.625 μM, 7.8125 μM, and 3.90625 μM) using DMSO-free culture medium. Twenty (20) μL of each of these dilutions was then added to the cells (2×10^4 cells in 80 μL culture medium per 96-well) to obtain the final test compound concentrations (i.e., 25 μM, 12.5 μM, 6.25 μM, 3.125 μM, 1.5625 μM, and 0.78125 μM).
as §1

The test system of series [3] is A549 cells. Description: Prolonged inflammation (PMA induced MMP-1 or IL-8) in A549 cells. The series is classed as cell-based. Particulars: FIG. 17. From the text: Panel 3: All the above were done on the transcriptional level (i.e., MMP-1, IL-8, etc. expressions). For IL-8, this was verified on the translational (i.e., protein expression) level as well.
Series [4] concerns MMP-1 in A549 cells. Description: PMA induced MMP-1 production in A549 cells. The series is classed as cell-based. Conditions: one hour treatment.
Another series deals with PC-12 cells. The experiment in a line: PC-12 cell cytotoxicity. The series is classed as cell-based. Conditions: FIG. 13.
The subject of the next series is IL-8 in A549 cells. Description: PMA-induced IL-8 levels in A549 cells, with or without RU-486. The series is classed as cell-based. Particulars: 4 hr treatments.
In another series the test system is PC12 cells. The experiment in a line: NGF-stimulated neurite outgrowth in PC12 cells. The series is classed as cell-based. Conditions: 100 nM compound, NGF 100 ng/ml, 6 days. How it is done:
In chronic pain states, neurons form outgrowths which sensitize them to pain. NGF-induced neurite outgrowth was used as an assay for TrkA-dependent chronic/neuropathic pain activity.
Methods: PC12 cells were grown in 2% FBS and treated with or without NGF (100 ng/ml) 30 min before adding of vehicle or TRKA compounds for 6 days, changing media on day 3. On day 6 cells were fixed and stained for SRB before photographed for neurite outgrowth.

For a further series, the system named is FKBP51 (GR pathway). Description: GR specific anti-inflammatory marker FKBP51 in A549 cells. The series is classed as cell-based.
In the next series the test system is ALCL cell lines. Description: Proliferation of NPM-ALK-dependent ALCL / ALK+ T-cell lymphoma cell lines. The series is classed as cell-based. Conditions: FIGS. 5, 6.
Source text: as §1

The test system of series [5] is A549 cells. The experiment in a line: TNFα-induced acute inflammation in A549 cells. Conditions: 100 nM Dex or 1 μM compound (VI). The series is classed as cell-based.
The subject of series [6] is MMP-1 in A549 cells. Description: Combination of Trk inhibitor and glucocorticoid on MMP-1 expression in A549 cells. The series is classed as cell-based. Particulars: sub-optimal concentrations.

RET, sequence (P07949 29-1114): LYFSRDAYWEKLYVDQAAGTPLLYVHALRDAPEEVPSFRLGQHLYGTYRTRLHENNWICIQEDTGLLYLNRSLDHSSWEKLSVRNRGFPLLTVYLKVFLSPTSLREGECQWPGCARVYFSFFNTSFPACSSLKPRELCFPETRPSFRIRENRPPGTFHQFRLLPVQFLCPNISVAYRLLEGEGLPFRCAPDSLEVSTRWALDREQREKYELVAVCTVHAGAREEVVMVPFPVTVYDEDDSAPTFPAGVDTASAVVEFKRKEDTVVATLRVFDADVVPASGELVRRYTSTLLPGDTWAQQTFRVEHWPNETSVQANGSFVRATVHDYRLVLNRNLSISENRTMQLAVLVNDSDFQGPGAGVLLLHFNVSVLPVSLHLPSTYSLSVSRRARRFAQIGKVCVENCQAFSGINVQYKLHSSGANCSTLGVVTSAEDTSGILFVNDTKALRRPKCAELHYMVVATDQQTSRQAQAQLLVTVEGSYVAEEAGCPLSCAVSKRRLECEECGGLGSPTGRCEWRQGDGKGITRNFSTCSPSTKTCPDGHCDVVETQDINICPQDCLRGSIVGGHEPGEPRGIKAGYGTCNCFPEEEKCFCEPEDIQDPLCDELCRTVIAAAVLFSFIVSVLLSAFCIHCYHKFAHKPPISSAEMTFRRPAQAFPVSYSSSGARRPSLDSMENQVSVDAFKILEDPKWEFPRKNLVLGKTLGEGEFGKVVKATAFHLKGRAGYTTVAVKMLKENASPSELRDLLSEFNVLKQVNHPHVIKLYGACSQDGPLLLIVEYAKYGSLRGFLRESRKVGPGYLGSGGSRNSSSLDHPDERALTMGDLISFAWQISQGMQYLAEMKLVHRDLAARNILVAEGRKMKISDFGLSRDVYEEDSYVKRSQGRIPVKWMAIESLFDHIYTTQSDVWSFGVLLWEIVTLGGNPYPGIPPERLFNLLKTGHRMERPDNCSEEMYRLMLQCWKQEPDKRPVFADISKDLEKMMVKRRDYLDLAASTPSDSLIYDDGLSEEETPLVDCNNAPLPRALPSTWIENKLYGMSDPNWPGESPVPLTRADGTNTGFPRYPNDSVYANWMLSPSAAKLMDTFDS
ROS, sequence (P08922 28-2347): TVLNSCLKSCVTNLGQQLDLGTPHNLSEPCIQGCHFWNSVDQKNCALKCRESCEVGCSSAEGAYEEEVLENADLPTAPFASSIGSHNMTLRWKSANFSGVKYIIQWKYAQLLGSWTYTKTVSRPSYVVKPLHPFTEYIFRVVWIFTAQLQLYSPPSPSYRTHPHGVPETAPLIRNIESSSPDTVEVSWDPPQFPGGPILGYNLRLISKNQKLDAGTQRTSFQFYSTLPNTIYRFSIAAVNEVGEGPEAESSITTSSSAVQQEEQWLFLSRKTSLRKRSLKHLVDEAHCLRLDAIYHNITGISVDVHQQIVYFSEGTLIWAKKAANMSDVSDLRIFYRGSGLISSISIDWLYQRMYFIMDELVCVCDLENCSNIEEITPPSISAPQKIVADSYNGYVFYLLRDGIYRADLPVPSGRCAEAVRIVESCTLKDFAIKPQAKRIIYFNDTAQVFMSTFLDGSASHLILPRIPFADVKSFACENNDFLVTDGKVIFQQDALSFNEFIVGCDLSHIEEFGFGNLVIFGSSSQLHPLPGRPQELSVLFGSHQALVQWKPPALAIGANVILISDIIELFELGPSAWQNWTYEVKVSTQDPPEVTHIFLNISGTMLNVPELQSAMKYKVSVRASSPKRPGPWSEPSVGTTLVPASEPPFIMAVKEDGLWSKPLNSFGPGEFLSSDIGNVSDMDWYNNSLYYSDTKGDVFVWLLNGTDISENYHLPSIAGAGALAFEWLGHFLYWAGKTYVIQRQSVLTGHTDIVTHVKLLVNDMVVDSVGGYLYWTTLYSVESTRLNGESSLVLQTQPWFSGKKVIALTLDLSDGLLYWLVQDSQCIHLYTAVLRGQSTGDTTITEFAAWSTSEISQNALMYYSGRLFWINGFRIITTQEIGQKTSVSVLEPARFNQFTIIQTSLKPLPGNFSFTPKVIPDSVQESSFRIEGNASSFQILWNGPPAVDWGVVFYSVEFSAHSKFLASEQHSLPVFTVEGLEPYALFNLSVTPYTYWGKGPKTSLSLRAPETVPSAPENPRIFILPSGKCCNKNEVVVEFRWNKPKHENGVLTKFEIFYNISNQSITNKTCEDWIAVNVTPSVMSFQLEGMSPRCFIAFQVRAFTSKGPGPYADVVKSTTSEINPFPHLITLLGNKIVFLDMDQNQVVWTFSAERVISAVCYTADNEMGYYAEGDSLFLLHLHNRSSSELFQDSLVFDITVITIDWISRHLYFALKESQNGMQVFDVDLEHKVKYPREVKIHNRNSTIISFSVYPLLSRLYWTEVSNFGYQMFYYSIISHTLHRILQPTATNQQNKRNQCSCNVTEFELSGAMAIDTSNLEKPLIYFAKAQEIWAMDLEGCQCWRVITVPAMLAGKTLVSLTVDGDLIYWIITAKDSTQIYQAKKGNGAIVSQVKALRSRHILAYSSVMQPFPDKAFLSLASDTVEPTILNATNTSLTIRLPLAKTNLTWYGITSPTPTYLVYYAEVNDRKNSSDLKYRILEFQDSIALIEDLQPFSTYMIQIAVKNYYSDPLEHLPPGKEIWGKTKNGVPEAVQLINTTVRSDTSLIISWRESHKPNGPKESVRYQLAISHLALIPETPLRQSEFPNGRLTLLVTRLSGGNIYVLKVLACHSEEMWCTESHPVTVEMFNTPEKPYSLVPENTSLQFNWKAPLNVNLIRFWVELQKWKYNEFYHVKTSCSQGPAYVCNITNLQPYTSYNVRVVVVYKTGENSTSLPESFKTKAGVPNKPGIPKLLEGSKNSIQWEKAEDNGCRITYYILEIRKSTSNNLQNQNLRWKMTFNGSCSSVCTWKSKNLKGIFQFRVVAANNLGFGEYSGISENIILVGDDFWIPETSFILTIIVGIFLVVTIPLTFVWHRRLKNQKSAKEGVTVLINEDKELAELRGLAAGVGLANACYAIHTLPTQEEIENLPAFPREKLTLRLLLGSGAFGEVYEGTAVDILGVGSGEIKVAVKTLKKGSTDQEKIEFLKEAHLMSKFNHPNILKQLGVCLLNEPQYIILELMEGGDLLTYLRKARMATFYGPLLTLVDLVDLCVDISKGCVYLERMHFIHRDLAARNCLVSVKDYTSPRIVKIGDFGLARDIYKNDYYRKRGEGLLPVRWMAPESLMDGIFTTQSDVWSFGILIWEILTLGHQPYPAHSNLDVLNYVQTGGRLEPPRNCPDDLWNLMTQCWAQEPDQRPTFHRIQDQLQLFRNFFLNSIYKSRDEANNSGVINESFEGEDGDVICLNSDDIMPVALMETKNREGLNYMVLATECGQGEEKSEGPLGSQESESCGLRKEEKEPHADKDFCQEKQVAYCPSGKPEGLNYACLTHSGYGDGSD
TRKA, sequence (P04629 510-781 limits assumed): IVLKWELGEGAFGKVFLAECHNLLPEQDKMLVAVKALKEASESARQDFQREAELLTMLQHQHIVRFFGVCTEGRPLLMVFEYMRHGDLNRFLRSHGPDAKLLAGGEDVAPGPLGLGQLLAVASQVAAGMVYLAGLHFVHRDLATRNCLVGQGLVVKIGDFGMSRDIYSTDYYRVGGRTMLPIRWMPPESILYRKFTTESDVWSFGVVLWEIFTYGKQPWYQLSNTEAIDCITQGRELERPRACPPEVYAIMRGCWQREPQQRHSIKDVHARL
ALK, sequence (Q9UM73 with tags, fused parts or gaps): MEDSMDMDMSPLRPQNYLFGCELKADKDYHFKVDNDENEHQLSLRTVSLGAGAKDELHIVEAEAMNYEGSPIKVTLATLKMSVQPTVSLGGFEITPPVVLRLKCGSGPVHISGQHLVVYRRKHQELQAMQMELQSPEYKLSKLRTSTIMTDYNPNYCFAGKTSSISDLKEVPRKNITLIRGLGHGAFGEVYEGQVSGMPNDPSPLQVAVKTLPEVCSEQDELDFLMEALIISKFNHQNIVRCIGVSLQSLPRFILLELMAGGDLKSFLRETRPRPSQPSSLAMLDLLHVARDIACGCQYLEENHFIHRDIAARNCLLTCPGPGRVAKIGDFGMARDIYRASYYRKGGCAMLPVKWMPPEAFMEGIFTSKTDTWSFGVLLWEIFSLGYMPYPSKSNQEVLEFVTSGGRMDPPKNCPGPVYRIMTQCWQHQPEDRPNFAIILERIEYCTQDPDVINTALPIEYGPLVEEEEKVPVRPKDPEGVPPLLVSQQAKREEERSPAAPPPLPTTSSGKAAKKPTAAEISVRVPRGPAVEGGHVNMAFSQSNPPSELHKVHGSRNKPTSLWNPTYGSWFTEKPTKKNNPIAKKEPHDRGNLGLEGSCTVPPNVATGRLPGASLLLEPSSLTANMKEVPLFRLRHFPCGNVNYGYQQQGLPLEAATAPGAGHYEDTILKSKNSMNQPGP

For `C[C@@H](Cc1c(F)c(F)cc(F)c1F)Nc1cc[nH]c(=O)c1-c1nc2cc3c(cc2[nH]1)CN(CCN(C)C)C3=O`, the values for the IC50 in the series with U937, in the series on SUDHL-1 and against RET were greater than 3000 nM, 102 nM and 4 nM, respectively. Further, the figures for the CLint scaled in [1] and in series [2] were 82.2 mL/min/kg and less than 5.8 mL/min/kg, respectively.

Regarding `C[C@@H](Cc1c(F)c(F)cc(F)c1F)Nc1cc[nH]c(=O)c1-c1nc2cc3c(cc2[nH]1)C(=O)N(C1CCN(C)CC1)C3`, the IC50 (as a rule, the midpoint of a concentration-inhibition curve) was found to be 1180 nM in the series with U937; 5 nM on TRKA; 0.3 nM against ROS; 10 nM on ALK; 99 nM in the series with Karpas299; 93 nM with SUDHL-1. The same molecule showed a 50% inhibitory concentration (IC50) on RET of 6 nM. The CLint scaled in series [1] and in series [2] was less than 5.8 mL/min/kg throughout.

For `COC(=O)[C@@]1(O)C[C@H]2O[C@]1(C)n1c3ccccc3c3c4c(c5c6ccccc6n2c5c31)C(=O)NC4` [K252a, reference compound], the “Anti-inflammatory effect on prolonged inflammation (PMA induced MMP-1 or IL-8)” value in the series with A549 cells [3] is recorded as “demonstrated anti-inflammatory activity which was not reversible by GR antagonist”.

Turning to `C[C@@H](Cc1c(F)c(F)cc(F)c1F)Nc1cc[nH]c(=O)c1-c1nc2cc3c(cc2[nH]1)CN(CCN1CCCC1)C3=O` [compound (III)], the “Concentration required for complete inhibition of PMA induced MMP-1 production” value in the series on MMP-1 in A549 cells [4] is roughly 1 µM. Further, in the series on PC-12 cells, the PC-12 cell cytotoxicity entry is reported as “lack of PC-12 cell cytotoxicity”. The “Effect of GR antagonist RU-486 on inhibition of PMA-induced IL-8 levels” value with IL-8 in A549 cells was “not affected or possibly were more potent”. Moreover, the NGF-stimulated neurite outgrowth result with PC12 cells is “inhibited the neurite outgrowth”. Moreover, the “Activation of GR pathway (FKBP51 marker)” value with FKBP51 (GR pathway) is given as “did not active the GR pathway”.

Turning to `C[C@@H](Cc1cccs1)Nc1cc[nH]c(=O)c1-c1nc2cc3c(cc2[nH]1)C(=O)N(CCCN1CCCC1)C3` [compound (V)], the “Inhibition of ALCL / ALK+ T-cell lymphoma cell line proliferation” value in the series on ALCL cell lines was “potent and highly selective inhibitor of ALCL cell lines”.

With `C[C@@H](Cc1cc(F)cc(F)c1F)Nc1cc[nH]c(=O)c1-c1nc2cc3c(cc2[nH]1)CN(CCN(C)C)C3=O` [compound (VI)], the “Concentration required for complete inhibition of PMA induced MMP-1 production” value in the series with MMP-1 in A549 cells [4] was roughly 1 µM. Also, the PC-12 cell cytotoxicity result in the series on PC-12 cells is given as “lack of PC-12 cell cytotoxicity”. For the same molecule, the “Effect of GR antagonist RU-486 on inhibition of PMA-induced IL-8 levels” value in the series on IL-8 in A549 cells is recorded as “not affected or possibly were more potent”. The TNFα-induced acute inflammation result in the series with A549 cells [5] is recorded as “partially reversible”. Also, in the series with PC12 cells, the NGF-stimulated neurite outgrowth entry was “inhibited the neurite outgrowth”. In addition, the “Anti-inflammatory effect on prolonged inflammation (PMA induced MMP-1 or IL-8)” value in the series with A549 cells [3] is recorded as “anti-inflammatory activity was observed; also recorded: demonstrated anti-inflammatory activity which was not reversible by GR antagonist”. Also, in the series with FKBP51 (GR pathway), the “Activation of GR pathway (FKBP51 marker)” value was “did not active the GR pathway”. Also, the “Effect of combination with Dex on PMA-induced inflammation (MMP-1 expression)” value in the series on MMP-1 in A549 cells [6] is “additive anti-inflammatory effects”.

Regarding `C[C@@H]1C[C@H]2[C@@H]3CCC4=CC(=O)C=C[C@]4(C)[C@@]3(F)[C@@H](O)C[C@]2(C)[C@@]1(O)C(=O)CO` [dexamethasone, reference compound], the “Inhibition of PMA induced MMP-1 production” value in the series with MMP-1 in A549 cells [4] is given as “potently inhibit PMA induced MMP-1 production in the nM range”. Besides, in the series on IL-8 in A549 cells, the “Effect of GR antagonist RU-486 on inhibition of PMA-induced IL-8 levels” value was “reversible by GR antagonist RU-486”. Moreover, in the series with A549 cells [5], the TNFα-induced acute inflammation entry is recorded as “partially reversible”.
